Assay results as given in ChEMBL document CHEMBL1201862, “PubChem BioAssay data set” (2004).
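Step 1: Grow cells in 96-well plates. Step 2: Expose to compound for 48 hours at 5 concentrations. Step 3: Interpolate endpoints linearly; if unreached, use highest concentration. GI50 marks 50% less growth.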 The source made the active and inactive calls. Rule as the data show it: active = GI50 up to about 1.1 µM and inactive = higher.

Columns and labels:
Test in all cases: NCI-60 cell line screen, 48 h
RXF 393 = test system: RXF 393
HOP-62 = test system: HOP-62
SN12C = test system: SN12C
Hs-578T = test system: Hs-578T
HCT-15 = test system: HCT-15
OVCAR-8 = test system: OVCAR-8
A498 = test system: A498
COLO 205 = test system: COLO 205
SK-MEL-28 = test system: SK-MEL-28
M14 = test system: M14
DMS-273 = test system: DMS-273
LOX IMVI = test system: LOX IMVI
T47D = test system: T47D
HOP-92 = test system: HOP-92
IGROV-1 = test system: IGROV-1
TK-10 = test system: TK-10
SNB-78 = test system: SNB-78
NCI-H460 = test system: NCI-H460
CCRF-CEM = test system: CCRF-CEM
BT-549 = test system: BT-549

SMILES	GI50 (RXF 393)	GI50 (HOP-62)	GI50 (SN12C)	GI50 (Hs-578T)	GI50 (HCT-15) [µM]	GI50 (OVCAR-8)	GI50 (A498)	GI50 (COLO 205)	GI50 (SK-MEL-28)	GI50 (M14)	GI50 (DMS-273)	GI50 (LOX IMVI)	GI50 (T47D)	GI50 (HOP-92)	GI50 (IGROV-1)	GI50 (TK-10)	GI50 (SNB-78)	GI50 (NCI-H460)	GI50 (CCRF-CEM)	GI50 (BT-549)
CCCC/C=C1/CCC(CN(C)C)C1=O (centres undefined)	1.77 µM (inactive)	20 µM (inactive)	1.87 µM (inactive)	3.18 µM (inactive)	0.401	1.83 µM (inactive)	8.77 µM (inactive)	1.42 µM (inactive)	1.92 µM (inactive)	1.71 µM (inactive)	2.71 µM (inactive)	1.39 µM (inactive)	1.31 µM (inactive)	2.07 µM (inactive)	3.98 µM (inactive)	1.01 µM (active)	2.3 µM (inactive)	–	–	–
CC1=CC2CC(C)=C(CC[C@]3(C)CC[C@H]([C@@H](C)C(=O)O)OO3)C(C)(C)C2CC1 (some centres undefined)	0.372 µM (active)	1.75 µM (inactive)	0.391 µM (active)	–	0.675	0.603 µM (active)	1.75 µM (inactive)	0.403 µM (active)	1.57 µM (inactive)	1.31 µM (inactive)	0.528 µM (active)	0.0792 µM (active)	–	0.136 µM (active)	0.212 µM (active)	1.76 µM (inactive)	1.51 µM (inactive)	0.2 µM (active)	0.182 µM (active)	–
O=S1(=O)CCC2=CC(C(F)(F)F)=CC(C(F)(F)F)=CN21	1.47 µM (inactive)	2.34 µM (inactive)	1.55 µM (inactive)	3.1 µM (inactive)	0.485	0.308 µM (active)	2.08 µM (inactive)	0.454 µM (active)	1.78 µM (inactive)	0.693 µM (active)	0.767 µM (active)	0.348 µM (active)	0.167 µM (active)	1.15 µM (inactive)	1.84 µM (inactive)	0.697 µM (active)	1.85 µM (inactive)	2.59 µM (inactive)	0.0738 µM (active)	2.43 µM (inactive)
N#CC(C(=O)/C(=N/NC(=O)c1ccccc1O)C(C#N)c1ccc(Br)cc1)c1ccc(Br)cc1 (centres undefined)	4.71 µM (inactive)	14.4 µM (inactive)	9.12 µM (inactive)	–	9.08	6.43 µM (inactive)	13.7 µM (inactive)	16.5 µM (inactive)	13.8 µM (inactive)	14.3 µM (inactive)	13.4 µM (inactive)	7.82 µM (inactive)	–	16.7 µM (inactive)	15.7 µM (inactive)	24.4 µM (inactive)	4.75 µM (inactive)	14.2 µM (inactive)	2.23 µM (inactive)	–
O=C1C[C@H]2CCCN2[C@@H](c2ccccc2)C1	> 100 µM (inactive)	> 100 µM (inactive)	> 100 µM (inactive)	–	> 100	> 100 µM (inactive)	> 100 µM (inactive)	> 100 µM (inactive)	> 100 µM (inactive)	> 100 µM (inactive)	> 100 µM (inactive)	> 100 µM (inactive)	–	> 100 µM (inactive)	> 100 µM (inactive)	> 100 µM (inactive)	> 100 µM (inactive)	> 100 µM (inactive)	> 100 µM (inactive)	–
COc1cccc2nc3c(C(=O)NCCN(C)C)cccc3nc12	11.6 µM (inactive)	11.4 µM (inactive)	9.2 µM (inactive)	–	7	9.12 µM (inactive)	9.27 µM (inactive)	5.2 µM (inactive)	13.8 µM (inactive)	13.4 µM (inactive)	7.36 µM (inactive)	4.2 µM (inactive)	–	6.17 µM (inactive)	16.1 µM (inactive)	11 µM (inactive)	12.9 µM (inactive)	3.78 µM (inactive)	5.35 µM (inactive)	–
NC(=O)C(c1ccccc1)N1CCOCC1 (centres undefined)	> 100 µM (inactive)	> 100 µM (inactive)	> 100 µM (inactive)	–	> 100	> 100 µM (inactive)	> 100 µM (inactive)	> 100 µM (inactive)	> 100 µM (inactive)	> 100 µM (inactive)	> 100 µM (inactive)	> 100 µM (inactive)	–	> 100 µM (inactive)	> 100 µM (inactive)	> 100 µM (inactive)	> 100 µM (inactive)	> 100 µM (inactive)	> 100 µM (inactive)	–
CC1=C(C(=O)Nc2ccccc2C)C(c2ccccc2)C(C(=O)Nc2ccccc2C)=C(C)N1	23.9 µM (inactive)	40.6 µM (inactive)	56.6 µM (inactive)	–	40.6	52 µM (inactive)	29.7 µM (inactive)	24.1 µM (inactive)	> 100 µM (inactive)	39.4 µM (inactive)	49.5 µM (inactive)	16 µM (inactive)	–	6.61 µM (inactive)	42.7 µM (inactive)	98.6 µM (inactive)	32.9 µM (inactive)	33.6 µM (inactive)	20.9 µM (inactive)	–
